CSCC[C@H](NC(=O)OCC1c2ccccc2-c2ccccc21)C(=O)O
solubility (mole fraction)
Details	283.15 K	288.15 K	293.15 K	298.15 K	303.15 K	308.15 K	313.15 K	318.15 K	323.15 K
in 2-butanone	0.0269	0.0314	0.0336	0.0406	0.0454	0.0513	0.0621	0.0695	0.0818
in acetone	0.0457	0.0475	0.0553	0.0614	0.0722	0.0806	0.0892	0.0961	0.11
in acetonitrile	0.00368	0.00465	0.00571	0.00724	0.00847	0.00974	0.0111	0.0127	0.0155
in isobutanol	0.00438	0.00573	0.00736	0.0102	0.0136	0.0165	0.023	0.032	0.0402
in isopentanol	0.00409	0.00489	0.00573	0.00778	0.00996	0.0126	0.0154	0.02	0.0248
in isopropanol	0.00635	0.00765	0.00792	0.00932	0.0142	0.0213	0.0326	0.0474	0.0669
in n-butanol	0.0142	0.0178	0.0204	0.0237	0.0295	0.0339	0.0394	0.0478	0.0542
in n-butyl acetate	0.0129	0.015	0.0173	0.0203	0.0242	0.028	0.0347	0.0426	0.0532
in n-pentanol	0.00977	0.0117	0.0149	0.019	0.0272	0.033	0.0399	0.0514	0.0667
in n-propanol	0.0101	0.0141	0.0172	0.0231	0.0271	0.0324	0.0407	0.0496	0.0542
in n-propyl acetate	0.0155	0.0181	0.021	0.0252	0.0295	0.0361	0.0399	0.043	0.0456
in sec-butanol	0.00898	0.0109	0.0152	0.0223	0.0311	0.0438	0.0506	0.0612	0.0868
